Experiment [1] has as its system YAP nuclear translocation in HaCaT cells. Put plainly: YAP Translocation Assay (HaCaT Cells). Format: cell-based, human. Conditions: Homo sapiens, 24 hours. Here is the method: HaCaT cells were suspended at 0.4×10^6 cells/ml in DMEM+10% FBS with penicillin-streptomycin-glutamine. 50 μl of cells were dispensed into 384-well clear bottom assay plates (20,000 cells/well), and incubated overnight at 37° C. 100 nL test compound was transferred into the assay wells containing HaCaT cells using ECHO (Labcyte). After 24 hours incubation at 37° C., 7 μL of 32% PFA was dispensed into each well and incubated for 45 minutes at room temperature. Plates were washed 3 times with PBS, leaving 20 μL of PBS per well, then treated with 0.1% Triton and 1.5% BSA in PBS for 45 minutes at room temperature. Plates were washed for 5 times with PBS, leaving 20 μL of PBS per well. […] Plates were further washed 3 time with PBS, sealed and imaged on the high-content Opera imaging system (PerkinElmer).

In experiment [2] the test system is Phospho-YAP (SER127) in HaCaT cells. The experiment is described as follows: pYAP HTRF Assay (HaCaT Cells). Type of experiment: cell-based, human. The following applies: Homo sapiens, 2 hours. How it is done:
The pYAP HTRF assay was performed using the Phospho-YAP (SER127) 10000 test kit (CisBio, catalogue number 64YAPPEH) according to manufacturer's instructions. Briefly, HaCaT cells were suspended at 1.1×10^6 cells/mL in DMEM (no phenol red)+10% FBS with penicillin-streptomycin-glutamine. 5 μL of cells were dispensed into 1536 well white solid bottom, tissue culture treated plates (5500 cells/well), and incubated for 48 hours at 37° C. 50 nL test compound was transferred into the assay plates containing HaCaT cells using Pintool (GNF) and incubated for 2 hours. […] The plates were incubated overnight (20 hrs) at room temperature covered with metal lids. Plates were read on Pherastar (BMG Labtech) for HTRF (665 nm/620 nm).

The target in another experiment is LATS1 (Homo sapiens (Human), UniProt O95835). Put plainly: LATS1 biochemical assay (Table 1A, Compound Examples 1-290; method in the earlier part).
Chain of LATS1 (O95835 whole entry, looked up): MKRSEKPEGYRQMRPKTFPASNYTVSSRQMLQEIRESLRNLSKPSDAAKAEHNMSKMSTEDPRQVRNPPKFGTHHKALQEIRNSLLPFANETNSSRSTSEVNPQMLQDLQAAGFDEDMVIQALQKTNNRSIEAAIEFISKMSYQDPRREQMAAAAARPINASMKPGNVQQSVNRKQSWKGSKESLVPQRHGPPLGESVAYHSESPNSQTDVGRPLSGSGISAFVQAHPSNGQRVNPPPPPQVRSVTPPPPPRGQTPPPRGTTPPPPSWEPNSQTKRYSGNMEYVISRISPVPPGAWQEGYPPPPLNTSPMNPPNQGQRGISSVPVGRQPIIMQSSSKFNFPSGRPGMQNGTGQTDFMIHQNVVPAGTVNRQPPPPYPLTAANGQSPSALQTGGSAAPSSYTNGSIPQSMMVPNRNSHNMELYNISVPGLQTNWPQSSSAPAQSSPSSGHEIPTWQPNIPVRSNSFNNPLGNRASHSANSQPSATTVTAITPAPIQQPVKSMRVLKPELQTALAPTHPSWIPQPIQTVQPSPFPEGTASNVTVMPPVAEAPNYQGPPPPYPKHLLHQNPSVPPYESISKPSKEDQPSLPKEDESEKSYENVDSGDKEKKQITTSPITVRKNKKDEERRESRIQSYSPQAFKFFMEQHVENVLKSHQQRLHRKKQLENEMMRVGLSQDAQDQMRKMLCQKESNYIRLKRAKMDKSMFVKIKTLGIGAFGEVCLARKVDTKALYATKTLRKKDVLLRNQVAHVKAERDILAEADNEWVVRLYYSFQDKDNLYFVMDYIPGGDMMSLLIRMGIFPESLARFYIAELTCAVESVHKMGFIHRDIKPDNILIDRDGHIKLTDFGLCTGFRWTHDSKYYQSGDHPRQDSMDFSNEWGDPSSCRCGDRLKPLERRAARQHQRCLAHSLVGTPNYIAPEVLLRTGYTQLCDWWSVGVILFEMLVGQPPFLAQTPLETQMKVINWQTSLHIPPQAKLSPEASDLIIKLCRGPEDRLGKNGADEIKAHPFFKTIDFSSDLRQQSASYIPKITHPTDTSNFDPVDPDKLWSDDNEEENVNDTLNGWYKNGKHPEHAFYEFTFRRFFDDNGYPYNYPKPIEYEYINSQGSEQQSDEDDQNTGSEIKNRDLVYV
Chain of LATS1 (Q7L9L4 whole entry partner, looked up): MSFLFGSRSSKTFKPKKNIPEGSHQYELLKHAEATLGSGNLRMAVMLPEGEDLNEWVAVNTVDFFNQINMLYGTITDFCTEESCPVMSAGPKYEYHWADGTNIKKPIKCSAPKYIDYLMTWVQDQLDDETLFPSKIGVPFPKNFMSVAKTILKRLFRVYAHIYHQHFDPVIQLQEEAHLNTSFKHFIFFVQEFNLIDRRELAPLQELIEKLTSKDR

In patent US11458138B2 (Novartis AG, priority 2017, dated 2022) one finds EC50 and IC50 data, which are given here for 30 compounds.

`CC1(Nc2nc(-c3ccnc4[nH]ccc34)nc3cnccc23)CC1` [Example 154, N-(1-methylcyclopropyl)-2-{1H-pyrrolo[2,3-b]pyridin-4-yl}pyrido[3,4-d]pyrimidin-4-amine] showed an EC50 in experiment [1] of 1.06 µM. In addition, the IC50 in experiment [2] is 2.53 µM.
As to `CC(C)(Nc1nc(-c2c[nH]nc2C(F)(F)F)nc2cnccc12)C(F)(F)F` [Example 145, N-(1,1,1-trifluoro-2-methylpropan-2-yl)-2-[3-(trifluoromethyl)-1H-pyrazol-4-yl]pyrido[3,4-d]pyrimidin-4-amine], the response in experiment [1] was half-maximal at 9.31 µM (EC50). For the same compound, the IC50 against LATS1 is 0.012 µM; in experiment [2] it was greater than 100 µM.
Taken in the same sequence, the figures for `CCCCCNc1nc(-c2ccncc2)nc2cnccc12` [Example 77, N-pentyl-2-(pyridin-4-yl)pyrido[3,4-d]pyrimidin-4-amine] were 13.4 µM, 0.009 µM and greater than 100 µM.
Taken in the same sequence, the figures for `OCC(CC(F)(F)F)Nc1nc(-c2ccncc2)nc2cnccc12` (stereo not shown) [Example 76, 4,4,4-trifluoro-2-{[2-(pyridin-4-yl)pyrido[3,4-d]pyrimidin-4-yl]amino}butan-1-ol] were 9.41 µM, 0.009 µM and 6.42 µM.
The compound `O=C(O)CC(Nc1nc(-c2ccncc2)nc2cnccc12)C(F)(F)F` (stereo not shown) [Example 44, 4,4,4-trifluoro-3-{[2-(pyridin-4-yl)pyrido[3,4-d]pyrimidin-4-yl]amino}butanoic acid] had an EC50 in experiment [1] greater than 20 µM. Further, the values for the IC50 (on LATS1; in experiment [2]) were greater than 2.5 µM and greater than 10 µM, respectively.
In experiment [1], `CC1(Nc2nc(-c3ccncc3C#N)nc3cnccc23)CC1` [Example 141, 4-{4-[(1-methylcyclopropyl)amino]pyrido[3,4-d]pyrimidin-2-yl}pyridine-3-carbonitrile] had an EC50 greater than 10 µM. Further, the IC50 worked out at 0.004 µM at LATS1 and 13.6 µM in experiment [2].
Taken in the same sequence, the figures for `CC[C@H](C)Nc1nc(-c2ccncc2)nc2cnccc12` (single isomer, unassigned) [Example 68a] were 1.68 µM, 0.001 µM and 1.43 µM.
On the same counts, the results for `CC1(Nc2nc(-c3ccnc(N)c3)nc3cnccc23)CC1` [Example 138, 4-{4-[(1-methylcyclopropyl)amino]pyrido[3,4-d]pyrimidin-2-yl}pyridin-2-amine] are 9.07 µM, 0.002 µM and 3.37 µM.
Taken in the same sequence, the figures for `Cc1ccccc1Nc1nc(-c2ccncc2)nc2cnccc12` [Example 89, N-(2-methylphenyl)-2-(pyridin-4-yl)pyrido[3,4-d]pyrimidin-4-amine] were greater than 100 µM, 0.044 µM and greater than 100 µM.
On to `CCC(CC)Nc1nc(-c2ccncc2)nc2cnccc12` [Example 73, N-(pentan-3-yl)-2-(pyridin-4-yl)pyrido[3,4-d]pyrimidin-4-amine], for which the EC50 in experiment [1] stood at 8.26 µM. Also, the values for the half-maximal inhibitory concentration (IC50) (on LATS1; in experiment [2]) were 0.006 µM and 9.07 µM, respectively.
On the same counts, the results for `C[C@H]1CCC[C@H]1Nc1nc(-c2ccncc2)nc2cnccc12` (single isomer, unassigned) [Example 17a] are 4.1 µM, 0.003 µM and 4.95 µM.
As for `CCN(c1nc(-c2ccncc2C)nc2cnccc12)C(C)C` [Example 123, N-ethyl-2-(3-methylpyridin-4-yl)-N-(propan-2-yl)pyrido[3,4-d]pyrimidin-4-amine], in experiment [1], the EC50 was 9.2 µM. In addition, the IC50 was 0.018 µM at LATS1 and 9.45 µM in experiment [2].
On the same counts, the results for `O[C@@H]1CCC[C@@H]1Nc1nc(-c2ccncc2)nc2cnccc12` [Example 26, (1R,2S)-2-{[2-(pyridin-4-yl)pyrido[3,4-d]pyrimidin-4-yl]amino}cyclopentan-1-ol] are greater than 100 µM, 0.031 µM and 54.6 µM.
Taken in the same sequence, the figures for `O=C(O)C1(Nc2nc(-c3ccncc3)nc3cnccc23)CCC1` [Example 56, 1-{[2-(pyridin-4-yl)pyrido[3,4-d]pyrimidin-4-yl]amino}cyclobutane-1-carboxylic acid] were greater than 20 µM, 1.16 µM and greater than 10 µM.
On the same counts, the results for `CC1(Nc2nc(-c3c[nH]nn3)nc3cnccc23)CC1` [Example 180, N-(1-methylcyclopropyl)-2-(1H-1,2,3-triazol-4-yl)pyrido[3,4-d]pyrimidin-4-amine] are greater than 20 µM, 0.322 µM and greater than 10 µM.
The compound `CC(C)(Nc1nc(-c2ccncc2)nc2cnccc12)c1ccc(F)cc1` [Example 83, N-[2-(4-fluorophenyl)propan-2-yl]-2-(pyridin-4-yl)pyrido[3,4-d]pyrimidin-4-amine] came in with an EC50 in experiment [1] of 28.2 µM. The IC50 turned out to be 0.017 µM at LATS1 and 42.1 µM in experiment [2].
In the case of `CC(C)(C#N)Nc1nc(-c2ccncc2)nc2cnccc12` [Example 107, 2-methyl-2-{[2-(pyridin-4-yl)pyrido[3,4-d]pyrimidin-4-yl]amino}propanenitrile], the concentration giving a half-maximal response (EC50) in experiment [1] is 20 µM. The IC50 against LATS1 came out at 0.008 µM; in experiment [2] it was 31.2 µM.
Take `Cc1n[nH]c(C)c1-c1nc(NC(C)(C)C(F)(F)F)c2ccncc2n1` [Example 144, 2-(3,5-dimethyl-1H-pyrazol-4-yl)-N-(1,1,1-trifluoro-2-methylpropan-2-yl)pyrido[3,4-d]pyrimidin-4-amine]: the EC50 in experiment [1] worked out at 4.44 µM. In addition, in experiment [2], the IC50 was determined as 0.606 µM.
In experiment [1], `CC(C)(O)CC(C)(C)Nc1nc(-c2cn[nH]c2)nc2cnccc12` [Example 166, 2,4-dimethyl-4-{[2-(1H-pyrazol-4-yl)pyrido[3,4-d]pyrimidin-4-yl]amino}pentan-2-ol] yielded an EC50 of 8.45 µM. On LATS1, this compound came in with an IC50 of 0.014 µM.
Take `CC(C)(COCC(=O)O)Nc1nc(-c2ccncc2)nc2cnccc12` [Example 25, 2-(2-methyl-2-{[2-(pyridin-4-yl)pyrido[3,4-d]pyrimidin-4-yl]amino}propoxy)acetic acid]: the EC50 in experiment [1] is greater than 20 µM. The compound further showed an IC50 against LATS1 of 0.03 µM.
Taken in the same sequence, the figures for `CC(C)(CC(=O)O)NC(=O)CC(C)(C)Nc1nc(-c2ccncc2)nc2cnccc12` [Example 37, 3-methyl-3-(3-methyl-3-{[2-(pyridin-4-yl)pyrido[3,4-d]pyrimidin-4-yl]amino}butanamido) butanoic acid] were greater than 6.67 µM and 0.233 µM.
Taken in the same sequence, the figures for `OCC(CO)(CO)Nc1nc(-c2ccncc2)nc2cnccc12` [Example 36, 2-(hydroxymethyl)-2-{[2-(pyridin-4-yl)pyrido[3,4-d]pyrimidin-4-yl]amino}propane-1,3-diol] were greater than 20 µM and 0.199 µM.
On the same counts, the results for `CC1(Nc2nc(-c3ccn[nH]3)nc3cnccc23)CC1` [Example 176, N-(1-methylcyclopropyl)-2-(1H-pyrazol-5-yl)pyrido[3,4-d]pyrimidin-4-amine] are greater than 20 µM and greater than 2.5 µM.
Compound `O=C(O)C1CC(Nc2nc(-c3ccncc3)nc3cnccc23)C1` (stereo not shown) [Example 57, (1s,3s)-3-{[2-(pyridin-4-yl)pyrido[3,4-d]pyrimidin-4-yl]amino}cyclobutane-1-carboxylic acid] displayed an EC50 in experiment [1] greater than 20 µM. Besides, the IC50 against LATS1 was found to be 1.44 µM.
Taken in the same sequence, the figures for `CC(C)C(=O)Nc1nc(-c2ccncc2)nc2cnccc12` [Example 43, 2-methyl-N-[2-(pyridin-4-yl)pyrido[3,4-d]pyrimidin-4-yl]propanamide] were greater than 20 µM and greater than 1.97 µM.
On the same counts, the results for `CC(C)(O)CC(C)(C)Nc1nc(-c2ccncc2Cl)nc2cnccc12` [Example 125, 4-{[2-(3-chloropyridin-4-yl)pyrido[3,4-d]pyrimidin-4-yl]amino}-2,4-dimethylpentan-2-ol] are 8 µM and 0.023 µM.
On the same counts, the results for `Cn1nccc1-c1nc(NC2(C(F)(F)F)CC2)c2ccncc2n1` [Example 189, 2-(1-methyl-1H-pyrazol-5-yl)-N-[1-(trifluoromethyl)cyclopropyl]pyrido[3,4-d]pyrimidin-4-amine] are greater than 10 µM and 0.083 µM.
`O=C(O)CCCCCNc1nc(-c2ccncc2)nc2cnccc12` [Example 94, 6-{[2-(pyridin-4-yl)pyrido[3,4-d]pyrimidin-4-yl]amino}hexanoic acid] yielded an EC50 in experiment [1] greater than 20 µM. This compound showed an IC50 against LATS1 of 1.15 µM.
On the same counts, the results for `CC(C)(O)CC(C)(C)Nc1nc(-c2ccncc2C#N)nc2cnccc12` [Example 146, 4-{4-[(4-hydroxy-2,4-dimethylpentan-2-yl)amino]pyrido[3,4-d]pyrimidin-2-yl}pyridine-3-carbonitrile] are greater than 20 µM and 0.033 µM.
Taken in the same sequence, the figures for `Fc1cnccc1-c1cc(N2CCOCC2)c2ccncc2n1` [Example 279, 2-(3-fluoropyridin-4-yl)-4-(morpholin-4-yl)-1,7-naphthyridine] were greater than 20 µM and greater than 2.5 µM.
